Laboratory results published in patent publication EP4818172A1, “ASCORBIC ACID DERIVATIVES AND COSMETIC CONTAINING SAME” (Seiwa Kasei Co., Ltd., priority 2023, dated 2025).

Experiments:
[1] = test system: Normal human dermal fibroblasts (NHDF); assay: Hyaluronic acid production promoting effect (ELISA of supernatant); format: cell-based; conditions: sample at 10 mM or less in serum-free D-MEM, cultured 48 hours, % of control group (100%), N=3
Description: Normal human dermal fibroblasts (NHDF) were prepared in D-MEM containing 5% (v/v) fetal bovine serum to a cell density of 2.5 × 10^4 cells/well, and then pre-incubated on a 96-well plate for 24 hours. After removing the medium, samples prepared in serum-free D-MEM were added to each well and cultured for 48 hours. After the culture was completed, the amount of hyaluronic acid in the supernatant was quantified by ELISA. Measurements were performed in triplicate (N=3).
The amount of hyaluronic acid produced when the sample was measured at a concentration of 10 mM or less was compared with that of the control group, and the results (% values when the control group is set to 100%) are shown in Tables 18 to 20 based on the following criteria. • <100%: ± • 100-120%: + • 120%<: ++ [Table 18]

[2] = Stability test -2: residual rate in cream of pH 7 or 9 stored at 50°C; format: physicochemical; conditions: cream with 4.0 W/W% derivative
Description: (§1) For each of the samples of Synthesis Examples 9 to 32, (a) and (b) shown in Table 12 were each heated and mixed. After cooling, (c) shown in Table 12 was added to prepare a cream with a pH of 7 or 9. The sample was stored at 50°C for 4 weeks, and the residual rate was determined in the same manner as in Test Example 1 and evaluated according to the criteria described below. The odor and coloration were also evaluated according to the same method and criteria as in Test Example 1. The results regarding the residual rate are shown in Tables 13 and 14, and the results regarding the odor and coloration are shown in Tables 15 and 16.
• ⊚: 95% or more • ○: 85% or more, less than 95% • ×: Less than 85% [Table 12]

[3] = Stability test -2: odor and coloration of cream stored at 50°C; format: physicochemical; conditions: Test Example 2, cream stored at 50°C, total score of 10 panelists
Description: For each of the samples of Synthesis Examples 1 to 6, 1% aqueous solutions were adjusted to pH 3, 5, 7, 8, and 9 with a dilute potassium hydroxide aqueous solution, and then placed in 50 mL screw tubes and • 2: Color changes compared to immediately after preparation. • 1: Strongly colored compared to immediately after preparation. Based on the results of the above evaluation, the following classification was made: • ○: Total score of 10 panelists is 25 or more • △: Total score of 10 panelists is 16-24 • ×: The total score of 10 panelists is 15 or less [Table 10]
as §1

SMILES | Hyaluronic acid production-promoting effect [1] | Residual Rate After 2 weeks ([2]; pH7, stored at 50°C) | Residual Rate After 4 weeks ([2]; pH7, stored at 50°C) | Residual Rate After 2 weeks ([2]; pH9, stored at 50°C) | Residual Rate After 4 weeks ([2]; pH9, stored at 50°C) | Coloration After 2 weeks [3] | Odor After 2 weeks [3] | Coloration After 4 weeks [3] | Odor After 4 weeks [3]
CCCCCCCCCCCCCCCC(=O)OC[C@H](O)[C@H]1OC(=O)C(OP(=O)(O)O)=C1O [Ascorbyl phosphate 3Na palmitate, reference compound] | ± (<100%) | – | – | – | – | – | – | – | –
CCCCCCCCC(CCCCCC)C(=O)OC[C@H](OC(=O)C(CCCCCC)CCCCCCCC)[C@H]1OC(=O)C(OC(=O)C(CCCCCC)CCCCCCCC)=C1OC(=O)C(CCCCCC)CCCCCCCC (some centres unmarked) [Ascorbyl tetrahexyldecanoate, reference compound] | – | ○ (85% or more, less than 95%) | × (Less than 85%) | ○ (85% or more, less than 95%) | × (Less than 85%) | ○ (Total score of 10 panelists is 25 or more) | ○ (Total score of 10 panelists is 25 or more) | Δ | Δ
CCCCCCCCCCCCCCCC(=O)OCC(OC(=O)CCC)C1OC(=O)C2=C1OCCCO2 (centres unmarked) [Synthesis Example 30, 5-O-butanoyl-6-O-palmitoyl-2,3-O-(1,3-propanediyl) ascorbic acid] | – | ⊚ (95% or more) | ⊚ (95% or more) | ⊚ (95% or more) | ⊚ (95% or more) | ○ (Total score of 10 panelists is 25 or more) | ○ (Total score of 10 panelists is 25 or more) | ○ (Total score of 10 panelists is 25 or more) | Δ
CC(C)CCCCCCCCCCCCCCC(=O)OCC(OC(=O)CCCCCCCCCCCCCCC(C)C)C1OC(=O)C2=C1OCCO2 (centres unmarked) [Synthesis Example 32, 5,6-O-diisostearoyl-2,3-O-(1,2-ethanediyl) ascorbic acid] | + (100-120%) | ⊚ (95% or more) | ⊚ (95% or more) | ⊚ (95% or more) | ⊚ (95% or more) | ○ (Total score of 10 panelists is 25 or more) | ○ (Total score of 10 panelists is 25 or more) | ○ (Total score of 10 panelists is 25 or more) | Δ
CC1(C)COC2=C(O1)C(C(O)CO)OC2=O (centres unmarked) [synthesis example 7, 2,3-O-(2,2-dimethyl-1,2-ethanediyl) ascorbic acid] | + (100-120%) | – | – | – | – | – | – | – | –
CCCCCCCC(=O)OCC(O)C1OC(=O)C2=C1OCCCCO2 (centres unmarked) [synthesis example 11, 6-O-octanoyl-2,3-O-(1,4-butanediyl) ascorbic acid] | ++ (120%<) | ⊚ (95% or more) | ⊚ (95% or more) | ⊚ (95% or more) | ○ (85% or more, less than 95%) | ○ (Total score of 10 panelists is 25 or more) | ○ (Total score of 10 panelists is 25 or more) | ○ (Total score of 10 panelists is 25 or more) | Δ
CC(C)CCCCCCCCCCCCCCC(=O)OC[C@H](OC(=O)CCCCCCCCCCCCCCC(C)C)[C@H]1OC(=O)C2=C1OCCCCO2 [synthesis example 18, 5,6-O-diisostearoyl-2,3-O-(1,4-butanediyl) ascorbic acid] | ++ (120%<) | ⊚ (95% or more) | ⊚ (95% or more) | ⊚ (95% or more) | ⊚ (95% or more) | ○ (Total score of 10 panelists is 25 or more) | ○ (Total score of 10 panelists is 25 or more) | ○ (Total score of 10 panelists is 25 or more) | Δ
CCCC(=O)OCC(O)C1OC(=O)C2=C1OCCCO2 (centres unmarked) [synthesis example 20, 6-O-butanoyl-2,3-O-(1,3-propanediyl) ascorbic acid] | ++ (120%<) | ⊚ (95% or more) | ⊚ (95% or more) | ⊚ (95% or more) | ⊚ (95% or more) | ○ (Total score of 10 panelists is 25 or more) | ○ (Total score of 10 panelists is 25 or more) | ○ (Total score of 10 panelists is 25 or more) | Δ
CCCCCCCC(=O)OCC(O)C1OC(=O)C2=C1OCCCO2 (centres unmarked) [synthesis example 22, 6-O-octanoyl-2,3-O-(1,3-propanediyl) ascorbic acid] | ++ (120%<) | ⊚ (95% or more) | ⊚ (95% or more) | ⊚ (95% or more) | ⊚ (95% or more) | ○ (Total score of 10 panelists is 25 or more) | ○ (Total score of 10 panelists is 25 or more) | ○ (Total score of 10 panelists is 25 or more) | Δ
CCCCCCCCCCCC(=O)OCC(O)C1OC(=O)C2=C1OCCCO2 (centres unmarked) [synthesis example 24, 6-O-lauroyl-2,3-O-(1,3-propanediyl) ascorbic acid] | ++ (120%<) | ⊚ (95% or more) | ⊚ (95% or more) | ⊚ (95% or more) | ⊚ (95% or more) | ○ (Total score of 10 panelists is 25 or more) | ○ (Total score of 10 panelists is 25 or more) | ○ (Total score of 10 panelists is 25 or more) | Δ
CCCCCCCCCCCC(=O)OCC(OC(=O)CCCCCCCCCCC)C1OC(=O)C2=C1OCCCO2 (centres unmarked) [synthesis example 25, 5,6-O-dilauroyl-2,3-O-(1,3-propanediyl) ascorbic acid] | ++ (120%<) | ⊚ (95% or more) | ⊚ (95% or more) | ⊚ (95% or more) | ⊚ (95% or more) | ○ (Total score of 10 panelists is 25 or more) | ○ (Total score of 10 panelists is 25 or more) | Δ | Δ
CC1(C)OCC(C2OC(=O)C3=C2OCCCCO3)O1 (centres unmarked) [synthesis example 35, 5,6-O-isopropylidene-2,3-O-(1,4-butanediyl) ascorbic acid] | ++ (120%<) | – | – | – | – | – | – | – | –
CC1(C)OCC(C2OC(=O)C3=C2OCCCO3)O1 (centres unmarked) [synthesis example 36, 5,6-O-isopropylidene-2,3-O-(1,3-propanediyl) ascorbic acid] | ++ (120%<) | – | – | – | – | – | – | – | –
O=C1OC(C2COC(c3ccccc3)O2)C2=C1OCCCCO2 (centres unmarked) [synthesis example 37, 5,6-O-(phenylmethylene)-2,3-O-(1,4-butanediyl) ascorbic acid] | + (100-120%) | – | – | – | – | – | – | – | –
O=C1OC(C2COC(c3ccccc3)O2)C2=C1OCCCO2 (centres unmarked) [synthesis example 38, 5,6-O-(phenylmethylene)-2,3-O-(1,3-propanediyl) ascorbic acid] | ++ (120%<) | – | – | – | – | – | – | – | –
CC1(C)COC2=C(O1)C(=O)OC2C(O)CO (centres unmarked) [synthetic example 8, 2,3-O-(1,1-dimethyl-1,2-ethanediyl) ascorbic acid] | + (100-120%) | – | – | – | – | – | – | – | –
CCCCCCCC(=O)OCC(OC(=O)CCC)C1OC(=O)C2=C1OCCCCO2 (centres unmarked) [synthetic example 19, 5-O-butanoyl-6-O-octanoyl-2,3-O-(1,4-butanediyl) ascorbic acid] | – | ⊚ (95% or more) | ⊚ (95% or more) | ⊚ (95% or more) | ⊚ (95% or more) | ○ (Total score of 10 panelists is 25 or more) | ○ (Total score of 10 panelists is 25 or more) | ○ (Total score of 10 panelists is 25 or more) | Δ
O=C1OC(C(O)COCc2ccccc2)C2=C1OCCCCO2 (centres unmarked) [synthetic example 39, 6-O-benzyl-2,3-O-(1,4-butanediyl) ascorbic acid] | + (100-120%) | – | – | – | – | – | – | – | –
